Data published in PubChem BioAssay (NCI).
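Values below derive from 48-hour exposures of cells grown in 96-well plates, with endpoints linearly interpolated between the two concentrations bracketing the appropriate inhibition level. Definition used: TGI = concentration required for complete inhibition of growth.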

How the values were obtained:
Experiment in all cases: NCI tumour cell line growth inhibition, 48 h
786-0 renal = tested on: 786-0 renal
A549 NSCLC = tested on: A549 NSCLC
ACHN renal = tested on: ACHN renal
BT-549 breast = tested on: BT-549 breast
CCRF-CEM leukemia = tested on: CCRF-CEM leukemia
COLO 205 colon = tested on: COLO 205 colon
DU-145 prostate = tested on: DU-145 prostate
HCT-116 colon = tested on: HCT-116 colon
HCT-15 colon = tested on: HCT-15 colon
HL-60(TB) leukemia = tested on: HL-60(TB) leukemia
HOP-62 NSCLC = tested on: HOP-62 NSCLC
HOP-92 NSCLC = tested on: HOP-92 NSCLC
HS 578T breast = tested on: HS 578T breast
HT29 colon = tested on: HT29 colon
IGROV1 ovarian = tested on: IGROV1 ovarian
K-562 leukemia = tested on: K-562 leukemia
KM12 colon = tested on: KM12 colon
LOX IMVI melanoma = tested on: LOX IMVI melanoma
M14 melanoma = tested on: M14 melanoma
MALME-3M melanoma = tested on: MALME-3M melanoma
MCF7 breast = tested on: MCF7 breast
MDA-MB-231 breast = tested on: MDA-MB-231 breast
MDA-N = tested on: MDA-N
MOLT-4 leukemia = tested on: MOLT-4 leukemia
NCI-H23 lung = tested on: NCI-H23 lung
NCI-H460 lung = tested on: NCI-H460 lung
NCI-H522 lung = tested on: NCI-H522 lung
OVCAR-4 ovarian = tested on: OVCAR-4 ovarian
OVCAR-5 ovarian = tested on: OVCAR-5 ovarian
OVCAR-8 ovarian = tested on: OVCAR-8 ovarian
PC-3 prostate = tested on: PC-3 prostate
RPMI-8226 leukemia = tested on: RPMI-8226 leukemia
RXF 393 renal = tested on: RXF 393 renal
SF-268 CNS = tested on: SF-268 CNS
SF-295 CNS = tested on: SF-295 CNS
SF-539 CNS = tested on: SF-539 CNS
SK-MEL-2 melanoma = tested on: SK-MEL-2 melanoma
SK-MEL-28 melanoma = tested on: SK-MEL-28 melanoma
SK-MEL-5 melanoma = tested on: SK-MEL-5 melanoma
SK-OV-3 ovarian = tested on: SK-OV-3 ovarian
SN12C renal = tested on: SN12C renal
SNB-19 CNS = tested on: SNB-19 CNS
SNB-75 CNS = tested on: SNB-75 CNS
SR leukemia = tested on: SR leukemia
SW-620 colon = tested on: SW-620 colon
T-47D breast = tested on: T-47D breast
TK-10 renal = tested on: TK-10 renal
U251 CNS = tested on: U251 CNS
UACC-257 melanoma = tested on: UACC-257 melanoma
UACC-62 melanoma = tested on: UACC-62 melanoma
UO-31 renal = tested on: UO-31 renal
CAKI-1 renal = tested on: CAKI-1 renal
EKVX NSCLC = tested on: EKVX NSCLC
HCC-2998 colon = tested on: HCC-2998 colon
MDA-MB-435 = tested on: MDA-MB-435
NCI-H226 lung = tested on: NCI-H226 lung
NCI/ADR-RES ovarian = tested on: NCI/ADR-RES ovarian
OVCAR-3 ovarian = tested on: OVCAR-3 ovarian

Measured: TGI

Cc1ccc(S(=O)(=O)NC(=O)NCCC(=O)O)cc1
not listed: CAKI-1 renal | EKVX NSCLC | HCC-2998 colon | MDA-MB-435 | NCI-H226 lung | NCI/ADR-RES ovarian | OVCAR-3 ovarian
> 100 µM: all other assays above

COc1ccc(C(=C(I)c2ccccc2)c2ccc(OC)cc2)cc1
not listed: SNB-75 CNS
> 100 µM: all other assays above
